# Reference: publication PMC11876601 (Molecular Systems Biology, 2025)
# Like-named read-outs stand apart in the source and are kept apart here.
# Experiments:
# Test in all cases: cells
# [1] = tested on: Capan-1; design: ATPlite luminescence viability of PDAC cell lines, 11-dose single-agent curves, 4-parameter fit; conditions: Homo sapiens, CAPAN-1, 72 h, read-out: EC50 [nM]
# Procedure, shortened: (§1)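 Drug-combination screening used cells plated at 1000 to 5000 per well one day before treatment. Final DMSO was 0.2%. Each plate held untreated negative-control wells and 5 µM staurosporine positive-control wells.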
# [2] = tested on: PSN-1; design: ATPlite luminescence viability of PDAC cell lines, 11-dose single-agent curves, 4-parameter fit; conditions: Homo sapiens, PSN1, 72 h, read-out: EC50 [nM]
# Procedure, shortened: as §1
# [3] = tested on: BxPC-3; design: ATPlite luminescence viability of PDAC cell lines, 11-dose single-agent curves, 4-parameter fit; conditions: Homo sapiens, BXPC-3, 72 h, read-out: EC50 [nM]
# Procedure, shortened: as §1
# [4] = tested on: FAMPAC; design: ATPlite luminescence viability of PDAC cell lines, 11-dose single-agent curves, 4-parameter fit; conditions: 72 h, read-out: EC50 [nM]
# Procedure, shortened: as §1
# [5] = tested on: PaTu-8988-T; design: ATPlite luminescence viability of PDAC cell lines, 11-dose single-agent curves, 4-parameter fit; conditions: Homo sapiens, PaTu 8988t, 72 h, read-out: EC50 [nM]
# Procedure, shortened: as §1
# [6] = tested on: Dan-G; design: ATPlite luminescence viability of PDAC cell lines, 11-dose single-agent curves, 4-parameter fit; conditions: 72 h, read-out: EC50 [nM]
# Procedure, shortened: as §1
# [7] = tested on: MiaPaCa-2; design: ATPlite luminescence viability of PDAC cell lines, 11-dose single-agent curves, 4-parameter fit; conditions: Homo sapiens, MIA PaCa-2, 72 h, read-out: EC50 [nM]
# Procedure, shortened: as §1
# [8] = tested on: HPDE; design: ATPlite luminescence viability of PDAC cell lines, 11-dose single-agent curves, 4-parameter fit; conditions: HPDE, 72 h, read-out: EC50 [nM]
# Procedure, shortened: as §1
# [9] = tested on: Suit2-07; design: ATPlite luminescence viability of PDAC cell lines, 11-dose single-agent curves, 4-parameter fit; conditions: 72 h, read-out: EC50 [nM]
# Procedure, shortened: as §1
# [10] = tested on: Colo-357; design: Viability of PDAC cell lines, ATPlite luminescence, 11-dose single-agent curve fit; conditions: Homo sapiens, COLO357, 72 h, read-out: EC50 [nM]
# Procedure, shortened: (§2)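 screening used cells plated at 1000 to 5000 per well one day before treatment. Final DMSO was 0.2%. Each plate held untreated negative-control wells and 5 µM staurosporine positive-control wells.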
# [11] = tested on: PANC-1; design: Viability of PDAC cell lines, ATPlite luminescence, 11-dose single-agent curve fit; conditions: Homo sapiens, PANC-1, 72 h, read-out: EC50 [nM]
# Procedure, shortened: as §2
# [12] = tested on: AsPC-1; design: Viability of PDAC cell lines, ATPlite luminescence, 11-dose single-agent curve fit; conditions: Homo sapiens, ASPC1, 72 h, read-out: EC50 [nM]
# Procedure, shortened: as §2
# [13] = tested on: HuP-T4; design: Viability of PDAC cell lines, ATPlite luminescence, 11-dose single-agent curve fit; conditions: Homo sapiens, HuP-T4, 72 h, read-out: EC50 [nM]
# Procedure, shortened: as §2
# [14] = tested on: Colo-357; design: ATPlite luminescence viability of PDAC cell lines, 11-dose single-agent curves, 4-parameter fit; conditions: Homo sapiens, COLO357, 72 h, read-out: EC50 [nM]
# Procedure, shortened: as §1
# [15] = tested on: PANC-1; design: ATPlite luminescence viability of PDAC cell lines, 11-dose single-agent curves, 4-parameter fit; conditions: Homo sapiens, PANC-1, 72 h, read-out: EC50 [nM]
# Procedure, shortened: as §1
# [16] = tested on: Capan-1; design: Viability of PDAC cell lines, ATPlite luminescence, 11-dose single-agent curve fit; conditions: Homo sapiens, CAPAN-1, 72 h, read-out: EC50 [nM]
# Procedure, shortened: as §2
# [17] = tested on: BxPC-3; design: Viability of PDAC cell lines, ATPlite luminescence, 11-dose single-agent curve fit; conditions: Homo sapiens, BXPC-3, 72 h, read-out: EC50 [nM]
# Procedure, shortened: as §2
# [18] = tested on: PaTu-8988-T; design: Viability of PDAC cell lines, ATPlite luminescence, 11-dose single-agent curve fit; conditions: Homo sapiens, PaTu 8988t, 72 h, read-out: EC50 [nM]
# Procedure, shortened: as §2
# [19] = tested on: Dan-G; design: Viability of PDAC cell lines, ATPlite luminescence, 11-dose single-agent curve fit; conditions: 72 h, read-out: EC50 [nM]
# Procedure, shortened: as §2
# [20] = tested on: HuP-T4; design: ATPlite luminescence viability of PDAC cell lines, 11-dose single-agent curves, 4-parameter fit; conditions: Homo sapiens, HuP-T4, 72 h, read-out: EC50 [nM]
# Procedure, shortened: as §1
# [21] = tested on: HPDE; design: Viability of PDAC cell lines, ATPlite luminescence, 11-dose single-agent curve fit; conditions: HPDE, 72 h, read-out: EC50 [nM]
# Procedure, shortened: as §2
# [22] = tested on: AsPC-1; design: ATPlite luminescence viability of PDAC cell lines, 11-dose single-agent curves, 4-parameter fit; conditions: Homo sapiens, ASPC1, 72 h, read-out: EC50 [nM]
# Procedure, shortened: as §1
# [23] = tested on: MiaPaCa-2; design: Viability of PDAC cell lines, ATPlite luminescence, 11-dose single-agent curve fit; conditions: Homo sapiens, MIA PaCa-2, 72 h, read-out: EC50 [nM]
# Procedure, shortened: as §2
# [24] = tested on: Suit2-07; design: Viability of PDAC cell lines, ATPlite luminescence, 11-dose single-agent curve fit; conditions: 72 h, read-out: EC50 [nM]
# Procedure, shortened: as §2
# [25] = tested on: PSN-1; design: Viability of PDAC cell lines, ATPlite luminescence, 11-dose single-agent curve fit; conditions: Homo sapiens, PSN1, 72 h, read-out: EC50 [nM]
# Procedure, shortened: as §2
# [26] = tested on: FAMPAC; design: Viability of PDAC cell lines, ATPlite luminescence, 11-dose single-agent curve fit; conditions: 72 h, read-out: EC50 [nM]
# Procedure, shortened: as §2
Structure (SMILES),EC50 [1],EC50 [2],EC50 [3],EC50 [4],EC50 [5],EC50 [6],EC50 [7],EC50 [8],EC50 [9],EC50 [11],EC50 [12],EC50 [13],EC50 [14],EC50 [15],EC50 [21],EC50 [22],further results
CNC(=O)c1cc(Oc2ccc(NC(=O)Nc3ccc(Cl)c(C(F)(F)F)c3)cc2)ccn1 [Sorafenib],8320 nM,3820 nM,10200 nM,> 10000 nM,> 10000 nM,7810 nM,> 10000 nM,7960 nM,9770 nM,7780 nM,> 10000 nM,10200 nM,,,,,EC50 [10]: 4370 nM
CCCCCCCCCCCCCCCCCCOP(=O)([O-])OC1CC[N+](C)(C)CC1 [Perifosine],,2340 nM,,3030 nM,,,2990 nM,1280 nM,2140 nM,,> 10000 nM,0.04 nM,> 10000 nM,2590 nM,,,EC50 [16]: > 10000 nM; EC50 [17]: 1410 nM; EC50 [18]: 9320 nM; EC50 [19]: > 10000 nM
CO[C@@H]1[C@H](N(C)C(=O)c2ccccc2)C[C@H]2O[C@]1(C)n1c3ccccc3c3c4c(c5c6ccccc6n2c5c31)C(=O)NC4 [Midostaurin],,,,,385 nM,,,,,,,,,,221 nM,,EC50 [20]: 692 nM
C[C@@H](Oc1cc(-c2cnn(C3CCNCC3)c2)cnc1N)c1c(Cl)ccc(F)c1Cl [Crizotinib],,10200 nM,> 10000 nM,5990 nM,> 10000 nM,2500 nM,840 nM,8110 nM,2260 nM,,,2760 nM,3820 nM,> 10000 nM,,7880 nM,EC50 [16]: 1780 nM
COc1cc(OC)c(/C=C/S(=O)(=O)Cc2ccc(OC)c(NCC(=O)O)c2)c(OC)c1 [Rigosertib],178 nM,86.5 nM,63.2 nM,28.2 nM,607 nM,66 nM,324 nM,,2170 nM,,,809 nM,256 nM,313 nM,48.2 nM,863 nM,
CN(C)C[C@@H]1CCn2cc(c3ccccc32)C2=C(C(=O)NC2=O)c2cn(c3ccccc23)CCO1 [Ruboxistaurin],,> 10000 nM,> 10000 nM,> 10000 nM,> 10000 nM,,,> 10000 nM,,1620 nM,8110 nM,,,,,,EC50 [20]: > 10000 nM; EC50 [16]: 8680 nM; EC50 [10]: 5.38 nM; EC50 [19]: 5180 nM; EC50 [23]: 6440 nM; EC50 [24]: 3050 nM
O=C1NC(=O)[C@@H](c2cn3c4c(cccc24)CCC3)[C@@H]1c1c[nH]c2ccccc12 [Tivantinib],603 nM,215 nM,,317 nM,347 nM,412 nM,313 nM,,191 nM,,,> 10000 nM,536 nM,389 nM,143 nM,346 nM,
COc1cc2c(Oc3ccc4[nH]c(C)cc4c3F)ccnc2cc1OCC1(N)CC1 [Anlotinib],2440 nM,1920 nM,1520 nM,1580 nM,1520 nM,1850 nM,1720 nM,6100 nM,1270 nM,,,> 10000 nM,2350 nM,1960 nM,,3160 nM,
CN1CCN(CCOc2cc(OC3CCOCC3)c3c(Nc4c(Cl)ccc5c4OCO5)ncnc3c2)CC1 [Saracatinib],2210 nM,,863 nM,4910 nM,,1160 nM,51.6 nM,1430 nM,1340 nM,142 nM,4140 nM,> 10000 nM,,,,,EC50 [25]: 4260 nM; EC50 [10]: 869 nM; EC50 [18]: 244 nM
Cc1nc(Nc2ncc(C(=O)Nc3c(C)cccc3Cl)s2)cc(N2CCN(CCO)CC2)n1 [Dasatinib],704 nM,37.1 nM,78.9 nM,48.5 nM,16.6 nM,8640 nM,4.67 nM,580 nM,2600 nM,446 nM,> 10000 nM,,4740 nM,,,,EC50 [20]: 139 nM
CNC(=O)c1cc(Oc2ccc(NC(=O)Nc3ccc(Cl)c(C(F)(F)F)c3)c(F)c2)ccn1 [Regorafenib],6350 nM,1430 nM,7410 nM,> 10000 nM,> 10000 nM,4480 nM,4480 nM,9210 nM,> 10000 nM,,,> 10000 nM,,> 10000 nM,,2150 nM,EC50 [10]: 7480 nM
CN1CCC(COc2cnc(-c3cccc(Cn4nc(-c5cccc(C#N)c5)ccc4=O)c3)nc2)CC1 [Tepotinib],23.4 nM,4160 nM,10300 nM,> 10000 nM,6390 nM,8.91 nM,7010 nM,,7810 nM,,,268 nM,11.5 nM,3.11 nM,7650 nM,> 10000 nM,
CC1(C)CC=C(c2nc(C3CC(C)(C)OC(C)(C)C3)ccc2NC(=O)c2nc(C#N)c[nH]2)CC1 [Edicotinib],3970 nM,2160 nM,1960 nM,2850 nM,2070 nM,3250 nM,3040 nM,2070 nM,2380 nM,,,1370 nM,4490 nM,3070 nM,,2570 nM,
COc1cc2c(Oc3ccc4[nH]c(C)cc4c3F)ncnc2cc1OCCCN1CCCC1 [Cediranib],,> 10000 nM,7970 nM,> 10000 nM,6380 nM,6330 nM,10100 nM,,> 10000 nM,7310 nM,,,10300 nM,,4910 nM,7780 nM,EC50 [20]: 8450 nM; EC50 [16]: 8290 nM
Cc1nc(-c2cn3c(n2)-c2ccc(-c4cnn(C(C)(C)C(N)=O)c4)cc2OCC3)n(C(C)C)n1 [Taselisib],2920 nM,,245 nM,,459 nM,37.1 nM,446 nM,826 nM,141 nM,,,19.8 nM,27.1 nM,1570 nM,,873 nM,EC50 [25]: 7930 nM; EC50 [26]: > 10000 nM
